Assay [1] has as its target T1, HCV NS3/4A protease complex, BMS strain (UniProt P27958, species not given/STRAIN_BMS).
T1 construct: other: NS3/4A BMS strain; activity range class; numeric values, unit not given; said of H77 and J4L6S; fused on or other part: A three-lysine solubilising tail at the C-terminus of NS4A; A His tag is implied by the pET21b vector and Ni-NTA purification; Both are printed for the H77 and J4L6S constructs and apply to BMS by inference
Kind of assay: FRET peptide assay to monitor HCV NS3/4A proteolytic activity (BMS strain). The format is biochemical, Hepatitis C virus (genotype 1a). The gist of the method: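 Purified recombinant NS3/4A complex from genotype 1a BMS strain, 2-3 nM final, with RET S1 EDANS/DABCYL depsipeptide substrate at 2 μM final in HEPES pH 7.5, NaCl, Triton, glycerol, βME. Cleavage followed in real time by fluorescence. For high-potency compounds: 50 μg/ml BSA added, protease lowered to 300 pM.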

Assay [2] has as its system HCV replicon (strain 1b) in HUH-7 cells. Put plainly: HCV replicon FRET assay. Type of assay: cell-based, Hepatitis C virus.
The mark [3] stands for this setting: read-out: HCV Protease (IC50); NS3/4A BMS strain; activity range class.
Where [4] appears, read: Hepatitis C virus, Huh-7, read-out: HCV Pro Replicon (EC50), HCV replicon cell assay, activity range class.
The mark [5] stands for this setting: read-out: HCV Protease (IC50); NS3/4A BMS strain; numeric values, unit inferred.
Setting [6] is: Hepatitis C virus, Huh-7, read-out: HCV Pro Replicon (EC50), HCV replicon cell assay, numeric values, unit inferred.
Setting [7] is: read-out: HCV Pro Replicon (EC50), HCV replicon cell assay, activity range class.

Read-outs that look alike come from different tables or passages of the source.

Drawing on patent US7772180B2, “Hepatitis C virus inhibitors” (Bristol-Myers Squibb Company, priority 2006, dated 2010), this text covers IC50 and EC50 for 20 molecules.

T1 sequence (P27958 1027-1657, change not shown, one chain of several): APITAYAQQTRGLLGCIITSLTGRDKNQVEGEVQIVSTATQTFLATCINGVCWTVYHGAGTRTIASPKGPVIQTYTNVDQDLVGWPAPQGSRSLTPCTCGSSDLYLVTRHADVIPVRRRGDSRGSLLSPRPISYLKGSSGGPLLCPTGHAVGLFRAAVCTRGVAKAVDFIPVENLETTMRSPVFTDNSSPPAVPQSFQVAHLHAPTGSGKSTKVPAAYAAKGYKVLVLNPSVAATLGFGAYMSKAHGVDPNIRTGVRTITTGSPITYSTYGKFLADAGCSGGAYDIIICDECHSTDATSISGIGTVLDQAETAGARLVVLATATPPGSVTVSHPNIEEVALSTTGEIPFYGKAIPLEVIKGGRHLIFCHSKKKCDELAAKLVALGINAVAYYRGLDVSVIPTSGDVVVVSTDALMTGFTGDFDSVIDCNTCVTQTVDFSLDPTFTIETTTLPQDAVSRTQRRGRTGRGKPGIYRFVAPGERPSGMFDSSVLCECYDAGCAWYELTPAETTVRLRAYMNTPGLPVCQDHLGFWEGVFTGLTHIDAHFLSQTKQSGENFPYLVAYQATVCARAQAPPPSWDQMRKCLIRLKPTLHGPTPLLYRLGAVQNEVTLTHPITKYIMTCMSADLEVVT

With `C=C[C@@H]1C[C@]1(NC(=O)[C@@H]1C[C@@H](Oc2nccc3cc(OC)ccc23)CN1C(=O)[C@@H](Nc1nc(CC)cs1)C(C)(C)C)C(=O)NS(=O)(=O)C1CC1` [Compound 35, N-(4-ethyl-1,3-thiazol-2-yl)-3-methyl-L-valyl-(4R)—N-((1R,2S)-1-((cyclopropylsulfonyl)carbamoyl)-2-vinylcyclopropyl)-4-((6-methoxy-1-isoquinolinyl)oxy)-L-prolinamide], the IC50 – broadly, the concentration at which inhibition is half-maximal – in assay [1] (setting [3]) lay in the range of 0.6 to 20 nM. For the same molecule, the EC50 – broadly, the concentration giving half of the maximal effect – in assay [2] (setting [4]) was 3 to 100 nM.
For `C=C[C@@H]1C[C@]1(NC(=O)[C@@H]1C[C@@H](Oc2ncc(OC)c3ccc(Cl)cc23)CN1C(=O)[C@@H](Nc1ccc(C(=O)O)cc1)C(C)(C)C)C(=O)NS(=O)(=O)C1CC1` [209 first isomer, N-(4-carboxyphenyl)-3-methyl-L-valyl-(4R)-4-((7-chloro-4-methoxy-1-isoquinolinyl)oxy)-N-((1R,2S)-1-((cyclopropylsulfonyl)carbamoyl)-2-vinylcyclopropyl)-L-prolinamide], in assay [1] (setting [3]), the IC50 lay within 0.6 to 20 nM. Besides, the EC50 in assay [2] (setting [4]) lay within 3 to 100 nM.
On to `C=C[C@@H]1C[C@]1(NC(=O)[C@@H]1C[C@@H](Oc2ncc(OC)c3ccc(Cl)cc23)CN1C(=O)C(Nc1nsnc1OC)C(C)C)C(=O)NS(=O)(=O)C1CC1` (stereo partly shown) [Compound 242], for which the IC50 in assay [1] (setting [3]) is 0.6 to 20 nM. Moreover, in assay [2] (setting [4]), the EC50 was 3 to 100 nM.
As to `C=C[C@@H]1C[C@]1(NC(=O)[C@@H]1C[C@@H](Oc2nccc3cc(OC)ccc23)CN1C(=O)[C@H](Nc1ccccn1)C(C)(C)C)C(=O)NS(=O)(=O)C1CC1` [12 second isomer, 3-methyl-N-2-pyridinyl-D-valyl-(4R)—N-((1R,2S)-1-((cyclopropylsulfonyl)carbamoyl)-2-vinylcyclopropyl)-4-((6-methoxy-1-isoquinolinyl)oxy)-L-prolinamide], the IC50 in assay [1] (setting [3]) fell in the range of 20 to 200 nM. In addition, the EC50 in assay [2] (setting [4]) was in the range of 100 to 1000 nM.
As for “(4R)-4-((7-chloro-4-methoxy-1-isoquinolinyl)oxy)-N-((1R,2S)-1-((cyclopropylsulfonyl)carbamoyl)-2-vinylcyclopropyl)-1-((2R)-2-((4-ethoxy-1,2,5-thiadiazol-3-yl)amino)butanoyl)-L-prolinamide [Compound 233B]”, in assay [1] (NS3/4A BMS strain; numeric values, unit inferred; read-out: HCV Protease (IC50)), the IC50 came out at 1300 nM. Further, the EC50 in assay [2] (HCV replicon cell assay, numeric values, unit inferred, read-out: HCV Pro Replicon (EC50)) is 2630 nM.
Take `C=C[C@@H]1C[C@]1(NC(=O)[C@@H]1C[C@@H](Oc2nc(N(C)C)cc3c(OC)cccc23)CN1C(=O)C(Nc1cccc(C)n1)C(C)(C)C)C(=O)NS(=O)(=O)C1CC1` (single isomer, unassigned) [Compound 38B]: the IC50 in assay [1] (setting [5]) was 5000 nM. The EC50 in assay [2] (setting [6]) is 7710 nM.
As to `C=C[C@@H]1C[C@]1(NC(=O)[C@@H]1C[C@@H](Oc2nccc3cc(OC)ccc23)CN1C(=O)C(Nc1nc(OC)cc(OC)n1)C(C)C)C(=O)NS(=O)(=O)C1CC1` (mixture of isomers) [Compound 5, N-(4,6-dimethoxy-2-pyrimidinyl)valyl-(4R)—N-((1R,2S)-1-((cyclopropylsulfonyl)carbamoyl)-2-vinylcyclopropyl)-4-((6-methoxy-1-isoquinolinyl)oxy)-L-prolinamide], in assay [1] (setting [3]), the IC50 was 20 to 200 nM. In assay [2] (setting [4]), the EC50 was in the range of 100 to 1000 nM.
Take `C=CCCCCCC(Nc1ccc(OC)nc1)C(=O)N1C[C@H](Oc2ncc(OC)c3ccc(Cl)cc23)C[C@H]1C(=O)N[C@]1(C(=O)NS(=O)(=O)C2CC2)C[C@H]1C=C` (stereo partly shown) [Compound 411]: the IC50 in assay [1] (setting [3]) is more than 200 nM. For the same molecule, the EC50 in assay [2] (setting [7]) lay within 100 to 1000 nM.
On to `C=C[C@@H]1C[C@]1(NC(=O)[C@@H]1C[C@@H](Oc2nc(OC)cc3cc(OC)ccc23)CN1C(=O)C(Nc1ccccc1)C(C)(C)C)C(=O)NS(=O)(=O)C1CC1` (single isomer, unassigned) [20 first isomer], for which the IC50 in assay [1] (setting [3]) is 0.6 to 20 nM. The EC50 in assay [2] (setting [7]) was in the range of 3 to 100 nM.
On to `C=C[C@@H]1C[C@]1(NC(=O)[C@@H]1C[C@@H](Oc2ncc(OC)c3ccc(Cl)cc23)CN1C(=O)C(Nc1cc(Cl)cc(Cl)n1)C(C)(C)C)C(=O)NS(=O)(=O)C1CC1` (single isomer, unassigned) [Compound 32B], for which the IC50 in assay [1] (setting [3]) was more than 200 nM. Also, the EC50 in assay [2] (setting [4]) was more than 1000 nM.
On the same counts, the results for `C=C[C@@H]1C[C@]1(NC(=O)[C@@H]1C[C@@H](Oc2ncc(OC)c3ccc(Cl)cc23)CN1C(=O)[C@H](Nc1ccccc1F)C(C)(C)C)C(=O)NS(=O)(=O)C1CC1` [234 second isomer, N-(2-fluorophenyl)-3-methyl-D-valyl-(4R)-4-[(7-chloro-4-methoxy-1-isoquinolinyl)oxy]-N-((1R,2S)-1-{[(cyclopropylsulfonyl)amino]carbonyl}-2-vinylcyclopropyl)-L-prolinamide] are more than 200 nM and more than 1000 nM.
Turning to `C=C[C@@H]1C[C@]1(NC(=O)[C@@H]1C[C@@H](Oc2ncc(OC)c3ccc(Cl)cc23)CN1C(=O)[C@@H](Nc1cccc(S(=O)(=O)NC)c1)C(C)(C)C)C(=O)NS(=O)(=O)C1CC1` [227 first isomer, 3-methyl-N-(3-(methylsulfamoyl)phenyl)-L-valyl-(4R)-4-((7-chloro-4-methoxy-1-isoquinolinyl)oxy)-N-((1R,2S)-1-((cyclopropylsulfonyl)carbamoyl)-2-vinylcyclopropyl)-L-prolinamide], the IC50 in assay [1] (setting [3]) lay in the range of 0.6 to 20 nM. In addition, the EC50 in assay [2] (setting [4]) lay within 3 to 100 nM.
`C=C[C@@H]1C[C@]1(NC(=O)[C@@H]1C[C@@H](Oc2ncc(OC)c3ccc(Cl)cc23)CN1C(=O)C(Nc1cc(Cl)cc(Cl)n1)C(C)(C)C)C(=O)NS(=O)(=O)C1CC1` (single isomer, unassigned) [Compound 32A]: the IC50 in assay [1] (setting [5]) was determined as 1 nM. Moreover, in assay [2] (setting [6]), the EC50 is 3.59 nM.
Regarding `C=C[C@@H]1C[C@]1(NC(=O)[C@@H]1C[C@@H](Oc2ncc(OC)c3ccc(Cl)cc23)CN1C(=O)[C@@H](Nc1cccc(C(N)=O)c1)C(C)(C)C)C(=O)NS(=O)(=O)C1CC1` [217 first isomer, N-(3-carbamoylphenyl)-3-methyl-L-valyl-(4R)-4-((7-chloro-4-methoxy-1-isoquinolinyl)oxy)-N-((1R,2S)-1-((cyclopropylsulfonyl)carbamoyl)-2-vinylcyclopropyl)-L-prolinamide], the IC50 in assay [1] (setting [3]) lay in the range of 0.6 to 20 nM. In assay [2] (setting [4]), the EC50 lay in the range of 3 to 100 nM.
The like results for `C=C[C@@H]1C[C@]1(NC(=O)[C@@H]1C[C@@H](Oc2nccc3cc(OC)ccc23)CN1C(=O)[C@@H](Nc1cccnc1)C(C)(C)C)C(=O)NS(=O)(=O)C1CC1` [13 first isomer, 3-methyl-N-3-pyridinyl-L-valyl-(4R)—N-((1R,2S)-1-((cyclopropylsulfonyl)carbamoyl)-2-vinylcyclopropyl)-4-((6-methoxy-1-isoquinolinyl)oxy)-L-prolinamide] were, in that order, 20 to 200 nM and 3 to 100 nM.
The like results for `C=C[C@@H]1C[C@]1(NC(=O)[C@@H]1C[C@@H](Oc2ncc(OC)c3ccc(Cl)cc23)CN1C(=O)[C@H](CC)Nc1nsnc1OCC)C(=O)NS(=O)(=O)C1CC1` [Compound 233A, (4R)-4-((7-chloro-4-methoxy-1-isoquinolinyl)oxy)-N-((1R,2S)-1-((cyclopropylsulfonyl)carbamoyl)-2-vinylcyclopropyl)-1-((2S)-2-((4-ethoxy-1,2,5-thiadiazol-3-yl)amino)butanoyl)-L-prolinamide] were, in that order, 20 to 200 nM and 100 to 1000 nM.
Take `C=C[C@@H]1C[C@]1(NC(=O)[C@@H]1C[C@@H](Oc2ncc(OC)c3ccc(Cl)cc23)CN1C(=O)[C@@H](Nc1ccc(C(=O)NC(C)(C)c2ccccc2)cc1)C(C)(C)C)C(=O)NS(=O)(=O)C1CC1` [Compound 222A, 3-methyl-N-(4-((1-methyl-1-phenylethyl)carbamoyl)phenyl)-L-valyl-(4R)-4-((7-chloro-4-methoxy-1-isoquinolinyl)oxy)-N-((1R2S)-1-((cyclopropylsulfonl)carbamoyl)-2-vinylcyclopropyl)-L-prolinamide]: the IC50 in assay [1] (NS3/4A BMS strain; activity range class; read-out: HCV Protease (IC50)) was 0.6 to 20 nM. In addition, the EC50 in assay [2] (HCV replicon cell assay, activity range class, read-out: HCV Pro Replicon (EC50)) was 3 to 100 nM.
For `C=C[C@@H]1C[C@]1(NC(=O)[C@@H]1C[C@@H](Oc2ncc(OC)c3ccc(Cl)cc23)CN1C(=O)[C@H](Nc1cccc(C(=O)N(C)C)c1)C(C)(C)C)C(=O)NS(=O)(=O)C1CC1` [218 second isomer, N-(3-(dimethylcarbamoyl)phenyl)-3-methyl-D-valyl-(4R)-4-((7-chloro-4-methoxy-1-isoquinolinyl)oxy)-N-((1R,2S)-1-((cyclopropylsulfonyl)carbamoyl)-2-vinylcyclopropyl)-L-prolinamide], in assay [1] (setting [3]), the IC50 was more than 200 nM. Moreover, in assay [2] (setting [4]), the EC50 was more than 1000 nM.
`C=C[C@@H]1C[C@]1(NC(=O)[C@@H]1C[C@@H](Oc2ncc(OC)c3ccc(Cl)cc23)CN1C(=O)[C@@H](Nc1ccc(S(N)(=O)=O)cc1)C(C)(C)C)C(=O)NS(=O)(=O)C1CC1` [Compound 215A, 3-methyl-N-(4-sulfamoylphenyl)-L-valyl-(4R)-4-((7-chloro-4-methoxy-1-isoquinolinyl)oxy)-N-((1R,2S)-1-((cyclopropylsulfonyl)carbamoyl)-2-vinylcyclopropyl)-L-prolinamide]: the IC50 in assay [1] (setting [3]) was 0.6 to 20 nM. The EC50 in assay [2] (setting [4]) fell in the range of 3 to 100 nM.
Take `C=CC1CC1(NC(=O)C1CC(Oc2ncc(OC)c3ccc(Cl)cc23)CN1C(=O)C(Nc1ccccc1)C(C)(C)C)C(=O)NS(=O)(=O)C1CC1` (single isomer, unassigned; isomer 3) [213 first isomer]: in assay [1] (setting [3]), the IC50 was more than 200 nM. Also, in assay [2] (setting [7]), the EC50 fell in the range of 100 to 1000 nM.
